{"source": "patent US12550899B2", "about": "“Topramezone derivative and use thereof” (priority 2023, dated 2026)", "key": {"Digitaria sanguinalis": {"system": "Digitaria sanguinalis", "test": "Laboratory rainfastness test (foliar spray, simulated rainfall)", "format": "in vivo", "details": "for Average fresh weight / Control efficacy: 20 days post-application", "experimental": "Refer to the “Pesticides guidelines for laboratory bioactivity tests Part 4: Foliar spray application test for herbicide activity, NY/T 1155.4-2006”.\n(§1) The soil used for the test was a mixture of surface 20 cm loam and vermiculite, mixed in a volume ratio of 3:1 to form a culture soil. The test weeds were cultured in a glass greenhouse with a temperature ranging from 25° C. to 35° C. and under natural light.\n(§2) A measured quantity of Digitaria sanguinalis seeds were sown in plastic pots with a diameter of 9 cm, and covered with 1-2 mm of soil. The ports were then placed in enamel trays filled with water, and watered by bottom irrigation. After the water seeped to the soil surface, the pots were transferred to the glass greenhouse for standby.\n(§3) Five dosages were set for Compound I, Compound II and the control herbicide Topramezone, which were 3.75, 7.5, 15, 30 and 60 grams of active ingredient per hectare respectively. In addition, a blank control was also prepared.\n(§4) The required amount of the herbicide was accurately measured out and directly added with water, which was diluted to the required dosage by using the serial dilution method for standby.\n(§5) The test was conducted on Digitaria sanguinalis at the two-leaf and one-heart stage, with the stems and leaves both sprayed uniformly. The ASS-4 automatic control spraying system with a fan-shaped nozzle was used indoors for herbicide application. Depending on the nozzle pressure and flow rate, 50 mL of herbicide solution was applied to a spraying area of 1.1 m^2 (which was equivalent to the water consumption of 30 L per mu). The system's operating speed was calibrated. The plastic pots to be treated were arranged evenly on the spraying platform to ensure uniform treatment. The spray pressure was set to 0.35 MPa, and the flow rate of the fan-shaped nozzle was set to 800 mL/min. The spraying was carried out in sequence from the low dosage to the high dosage. Each treatment was repeated four times.\nThe rainfastness test was set as follows: at 0.5 hours, 1.0 hour, 3.0 hours, and 6.0 hours after the application of the herbicide, the weeds that have already been sprayed with the herbicide were subjected to stem and leaf showering with a specific shower equipment simulating rainfall. Weeds that were not subjected to the showering treatment served as the control group.\n(§6) The damage symptoms of the weeds (such as growth inhibition, chlorosis, malformation, etc.) were carefully recorded at 3, 7, 10, and 20 days after herbicide application. A visual comparison of the herbicide effectiveness was made after simulated rainfall at different time intervals. At 20 days post-application, the fresh weight of the aboveground parts of the weeds from each treatment group was measured, and the fresh weight control efficacy was calculated.\nThe treatment results were calculated according to the following formula: weed fresh weight control efficacy (%)=(control fresh weight−treatment fresh weight)/control fresh weight×100. A DPS statistical software was used to conduct regression analysis on the logarithmic values of the herbicide dosage and the probit values of the weed fresh weight control efficacy, and the correlation coefficient, GR50, GR90, and the 95% confidence interval were calculated."}, "[1]": {"system": "grassy weeds and broadleaf weeds", "test": "Laboratory bioactivity efficacy test 2.2, visual observation of weeds", "format": "in vivo", "experimental": "• grassy weeds: Digitaria sanguinalis, Eleusine indica, Echinochloa crusgalli; • Broadleaf weeds: Portulaca oleracea, Abutilon theophrasti medicus. 2.2.2 Test Conditions\nas §1\nas §2, with “Quantified seeds” for “A measured quantity”, “sanguinalis, Eleusine indica, Echinochloa crusgalli, Portulaca oleracea, and Abutilon theophrasti medicus” for “sanguinalis seeds”\nas §3, §4\nas §5, with “grassy weeds” for “Digitaria sanguinalis”, “one-heart stage, Abutilon theophrasti medicus at the 2-true-leaf stage, and Portulaca oleracea at the 3-5-leaf” for “one-heart”, “repeated two to” for “repeated”\nThe herbicide was applied once. After spraying, the pots were air-dried for one day and then placed in the glass greenhouse. Regular watering was conducted to maintain moisture.\nas §6, with “made.” for “made after simulated rainfall at different time intervals.”"}, "[2]": {"details": "No spraying (no simulated rainfall), dosage 3.75 g/hectare"}, "[3]": {"details": "No spraying (no simulated rainfall), dosage 7.5 g/hectare"}, "[4]": {"details": "No spraying (no simulated rainfall), dosage 15 g/hectare"}, "[5]": {"details": "No spraying (no simulated rainfall), dosage 30 g/hectare"}, "[6]": {"details": "No spraying (no simulated rainfall), dosage 60 g/hectare"}, "[7]": {"details": "Spraying water 0.5 hour after herbicide application, dosage 3.75 g/hectare"}, "[8]": {"details": "Spraying water 0.5 hour after herbicide application, dosage 7.5 g/hectare"}, "[9]": {"details": "Spraying water 0.5 hour after herbicide application, dosage 15 g/hectare"}, "[10]": {"details": "Spraying water 0.5 hour after herbicide application, dosage 30 g/hectare"}, "[11]": {"details": "Spraying water 0.5 hour after herbicide application, dosage 60 g/hectare"}, "[12]": {"details": "Spraying water 1.0 hour after herbicide application, dosage 3.75 g/hectare"}, "[13]": {"details": "Spraying water 1.0 hour after herbicide application, dosage 7.5 g/hectare"}, "[14]": {"details": "Spraying water 1.0 hour after herbicide application, dosage 15 g/hectare"}, "[15]": {"details": "Spraying water 1.0 hour after herbicide application, dosage 30 g/hectare"}, "[16]": {"details": "Spraying water 1.0 hour after herbicide application, dosage 60 g/hectare"}, "[17]": {"details": "Spraying water 3.0 hour after herbicide application, dosage 3.75 g/hectare"}, "[18]": {"details": "Spraying water 3.0 hour after herbicide application, dosage 7.5 g/hectare"}, "[19]": {"details": "Spraying water 3.0 hour after herbicide application, dosage 15 g/hectare"}, "[20]": {"details": "Spraying water 3.0 hour after herbicide application, dosage 30 g/hectare"}, "[21]": {"details": "Spraying water 3.0 hour after herbicide application, dosage 60 g/hectare"}, "[22]": {"details": "Spraying water 6.0 hour after herbicide application, dosage 3.75 g/hectare"}, "[23]": {"details": "Spraying water 6.0 hour after herbicide application, dosage 7.5 g/hectare"}, "[24]": {"details": "Spraying water 6.0 hour after herbicide application, dosage 15 g/hectare"}, "[25]": {"details": "Spraying water 6.0 hour after herbicide application, dosage 30 g/hectare"}, "[26]": {"details": "Spraying water 6.0 hour after herbicide application, dosage 60 g/hectare"}}, "note": "Entries after “also recorded” stand apart in the source; their conditions may differ."}
{"smiles": "Cc1c(C(=O)c2cnn(C)c2O)ccc(S(C)(=O)=O)c1C1=NOCC1", "note": "[Topramezone]", "values": [{"measurement": "Average fresh weight", "setting": "Digitaria sanguinalis; [2]", "result": 6.2, "unit": "g"}, {"measurement": "Control efficacy", "setting": "Digitaria sanguinalis; [2]", "result": 4.6, "unit": "%"}, {"measurement": "Average fresh weight", "setting": "Digitaria sanguinalis; [3]", "result": 5.0, "unit": "g"}, {"measurement": "Control efficacy", "setting": "Digitaria sanguinalis; [3]", "result": 23.4, "unit": "%"}, {"measurement": "Average fresh weight", "setting": "Digitaria sanguinalis; [4]", "result": 3.7, "unit": "g"}, {"measurement": "Control efficacy", "setting": "Digitaria sanguinalis; [4]", "result": 43.7, "unit": "%"}, {"measurement": "Average fresh weight", "setting": "Digitaria sanguinalis; [5]", "result": 2.3, "unit": "g"}, {"measurement": "Control efficacy", "setting": "Digitaria sanguinalis; [5]", "result": 64.8, "unit": "%"}, {"measurement": "Average fresh weight", "setting": "Digitaria sanguinalis; [6]", "result": 1.2, "unit": "g"}, {"measurement": "Control efficacy", "setting": "Digitaria sanguinalis; [6]", "result": 82.4, "unit": "%"}, {"measurement": "Average fresh weight", "setting": "Digitaria sanguinalis; [7]", "result": 6.5, "unit": "g"}, {"measurement": "Control efficacy", "setting": "Digitaria sanguinalis; [7]", "result": 0.0, "unit": "%"}, {"measurement": "Average fresh weight", "setting": "Digitaria sanguinalis; [8]", "result": 6.0, "unit": "g"}, {"measurement": "Control efficacy", "setting": "Digitaria sanguinalis; [8]", "result": 7.7, "unit": "%"}, {"measurement": "Average fresh weight", "setting": "Digitaria sanguinalis; [9]", "result": 5.9, "unit": "g"}, {"measurement": "Control efficacy", "setting": "Digitaria sanguinalis; [9]", "result": 10.3, "unit": "%"}, {"measurement": "Average fresh weight", "setting": "Digitaria sanguinalis; [10]", "result": 5.5, "unit": "g"}, {"measurement": "Control efficacy", "setting": "Digitaria sanguinalis; [10]", "result": 16.5, "unit": "%"}, {"measurement": "Average fresh weight", "setting": "Digitaria sanguinalis; [11]", "result": 4.6, "unit": "g"}, {"measurement": "Control efficacy", "setting": "Digitaria sanguinalis; [11]", "result": 29.1, "unit": "%"}, {"measurement": "Average fresh weight", "setting": "Digitaria sanguinalis; [12]", "result": 6.4, "unit": "g"}, {"measurement": "Control efficacy", "setting": "Digitaria sanguinalis; [12]", "result": 2.7, "unit": "%"}, {"measurement": "Average fresh weight", "setting": "Digitaria sanguinalis; [13]", "result": 6.0, "unit": "g"}, {"measurement": "Control efficacy", "setting": "Digitaria sanguinalis; [13]", "result": 8.0, "unit": "%"}, {"measurement": "Average fresh weight", "setting": "Digitaria sanguinalis; [14]", "result": 5.7, "unit": "g"}, {"measurement": "Control efficacy", "setting": "Digitaria sanguinalis; [14]", "result": 13.4, "unit": "%"}, {"measurement": "Average fresh weight", "setting": "Digitaria sanguinalis; [15]", "result": 5.3, "unit": "g"}, {"measurement": "Control efficacy", "setting": "Digitaria sanguinalis; [15]", "result": 19.2, "unit": "%"}, {"measurement": "Average fresh weight", "setting": "Digitaria sanguinalis; [16]", "result": 4.7, "unit": "g"}, {"measurement": "Control efficacy", "setting": "Digitaria sanguinalis; [16]", "result": 28.0, "unit": "%"}, {"measurement": "Average fresh weight", "setting": "Digitaria sanguinalis; [17]", "result": 6.4, "unit": "g"}, {"measurement": "Control efficacy", "setting": "Digitaria sanguinalis; [17]", "result": 1.5, "unit": "%"}, {"measurement": "Average fresh weight", "setting": "Digitaria sanguinalis; [18]", "result": 5.8, "unit": "g"}, {"measurement": "Control efficacy", "setting": "Digitaria sanguinalis; [18]", "result": 10.7, "unit": "%"}, {"measurement": "Average fresh weight", "setting": "Digitaria sanguinalis; [19]", "result": 5.7, "unit": "g"}, {"measurement": "Control efficacy", "setting": "Digitaria sanguinalis; [19]", "result": 13.4, "unit": "%"}, {"measurement": "Average fresh weight", "setting": "Digitaria sanguinalis; [20]", "result": 4.1, "unit": "g"}, {"measurement": "Control efficacy", "setting": "Digitaria sanguinalis; [20]", "result": 36.8, "unit": "%"}, {"measurement": "Average fresh weight", "setting": "Digitaria sanguinalis; [21]", "result": 3.3, "unit": "g"}, {"measurement": "Control efficacy", "setting": "Digitaria sanguinalis; [21]", "result": 50.2, "unit": "%"}, {"measurement": "Average fresh weight", "setting": "Digitaria sanguinalis; [22]", "result": 6.5, "unit": "g"}, {"measurement": "Control efficacy", "setting": "Digitaria sanguinalis; [22]", "result": 0.4, "unit": "%"}, {"measurement": "Average fresh weight", "setting": "Digitaria sanguinalis; [23]", "result": 5.1, "unit": "g"}, {"measurement": "Control efficacy", "setting": "Digitaria sanguinalis; [23]", "result": 21.8, "unit": "%"}, {"measurement": "Average fresh weight", "setting": "Digitaria sanguinalis; [24]", "result": 3.5, "unit": "g"}, {"measurement": "Control efficacy", "setting": "Digitaria sanguinalis; [24]", "result": 46.0, "unit": "%"}, {"measurement": "Average fresh weight", "setting": "Digitaria sanguinalis; [25]", "result": 2.7, "unit": "g"}, {"measurement": "Control efficacy", "setting": "Digitaria sanguinalis; [25]", "result": 59.4, "unit": "%"}, {"measurement": "Average fresh weight", "setting": "Digitaria sanguinalis; [26]", "result": 1.2, "unit": "g"}, {"measurement": "Control efficacy", "setting": "Digitaria sanguinalis; [26]", "result": 81.2, "unit": "%"}, {"measurement": "Effect of rain on control efficacy (in words)", "setting": "Digitaria sanguinalis; rain 0.5 h, 1.0 h and 3.0 h after application", "result": "obviously affected; also recorded: significantly reduced"}, {"measurement": "Effect of rain on control efficacy (in words)", "setting": "Digitaria sanguinalis; rain 6.0 h after application", "result": "relatively small impact; also recorded: almost unaffected"}, {"measurement": "Visual observation of weeds", "setting": "[1]; 3 to 7 days after application, grassy weeds and broadleaf weeds like Portulaca oleracea", "result": "gradually became whitened and withered"}, {"measurement": "Visual observation of weeds", "setting": "[1]; 10 days after application", "result": "excellent treatment effects"}, {"measurement": "Visual observation of weeds", "setting": "[1]; 20 days after application", "result": "dried up and died"}]}
